This note sets out measurements from patent US6878715B1, “Therapeutic compounds for inhibiting interleukin-12 signals and method for using same” (Cell Therapeutics, Inc., priority 1994, dated 2005).

In one test the test system is IL-12 induced IFN-γ secretion. The experiment in a line: IL-12 induced IFN-γ secretion (interferon gamma induction) assay in splenocyte culture. Format: cell-based. Particulars: compound added to a culture of splenocytes; FIG. 1. The protocol: The ability of IL-12 to induce generation of Th1 cells is aided by IFN-γ, a cytokine which is known to be induced by IL-12 itself. (R)-3-(N-biotinyl-6-aminohexyl)-1-(5-hydroxyhexyl)-7-methylxanthine (CT12460) and (R)-3-(N-biotinyl-2-aminoethyl)-1-(5-hydroxyhexyl)-7-methylxanthine (CT13410) were tested in an interferon gamma (IFN-γ) induction assay as described in Kobayashi, M., et al., “Identification and Purification of Natural Killer Cell Stimulatory Factor (NKSF), A Cytokine with Multiple Biologic Effects on Human Lymphocytes,” J. Exp. Med.U., 170:827-845 (at 829, 830 and 836) (1989). See also, Wolf, S., et al., “Interluekin 12: A Key Modulator of Immune Function,” Stem Cells, 12:154-168 (1994) and Trinchieri, supra.
As to `C[C@@H](O)CCCCn1c(=O)c2c(ncn2C)n(CCCCCCNC(=O)CCCC[C@@H]2SC[C@@H]3NC(=O)N[C@@H]32)c1=O` [CT12460, (R)-3-(6-biotinylamidohexyl)-1-(5-hydroxyhexyl)-7-methylxanthine], the “IL-12 induced IFN-γ secretion” value was “inhibited”. On the same count and under the same terms, in the case of `C[C@@H](O)CCCCn1c(=O)c2c(ncn2C)n(CCNC(=O)CCCC[C@@H]2SC[C@@H]3NC(=O)N[C@@H]32)c1=O` [CT13410, (R)-3-(6-biotinylamidoethyl)-1-(5-hydroxyhexyl)-7-methylxanthine] it was “inhibited”.

Another test has as its system GVHD. The experiment in a line: Graft-versus-host disease (GVHD) model. Conditions: bid, by gavage, first 5 days; assessed over 36 days after adoptive transfer of cells; vs vehicle control; FIG. 3. The test is classed as in vivo. As to the method: In a GVHD model, an irradiated F1 hybrid recipient population, bred across a parental major H2 mismatch, was infused with maternal cells activated in vitro with conconavalian A (Con A) and IL-12. LSF and the compound of Example 7 (CT12441) were compared with a vehicle control for efficacy. Both compounds were administered on a bid schedule, by gavage, for the first 5 days.
On to `CNCc1nc2c([nH]1)c(=O)n(CCCC[C@@H](C)O)c(=O)n2C` [CT12441, (R)-1-(5-hydroxyhexyl)-3-methyl-8-(N-methyl)aminomethylxanthine], for which the survival result was “significant increase of survival”. Same read-out and setting: in the case of `C[C@@H](O)CCCCn1c(=O)c2c(ncn2C)n(C)c1=O` [LSF, (R)-1-(5-Hydroxyhexyl)-3,7-dimethylxanthine, reference compound] it was “significant increase of survival”.

In the next test the test system is adoptive transfer EAE. The test is described as follows: Adoptive transfer experimental allergic encephalomyelitis (EAE) model. The test is classed as in vivo, mice. Conditions: bid, by gavage, first 5 days; vs vehicle only; FIG. 2. As to the method: An adoptive transfer experimental allergic encephalomyelitis (EAE) model was used, in which the splenic T cells from actively immunized mice were cultured for 4 days in antigen-containing (myelin basic protein) medium. The cells were then transferred to naive recipients, which were then evaluated for clinical changes in motor nerve function in the presence or absence of treatment with LSF or the compound of Example 22 (CT11558). Both compounds were administered on a bid schedule, by gavage, for the first 5 days.
As for `C[C@H](CCCCn1c(=O)c2c(ncn2C)n(C)c1=O)N(C)C` [CT11558, (R)-1-(5-N,N-dimethylaminohexyl)-3,7-dimethylxanthine], the “magnitude of observable clinical deficits (motor nerve function)” value is reported as “decrease in the magnitude” and the “onset of observable clinical deficits (motor nerve function)” value is “significant delay in the onset”. The like results for `C[C@@H](O)CCCCn1c(=O)c2c(ncn2C)n(C)c1=O` [LSF, (R)-1-(5-Hydroxyhexyl)-3,7-dimethylxanthine, reference compound] were, in that order, “decrease in the magnitude” and “significant delay in the onset”.

For another test, the system named is IL-12 induced Th1 differentiation (splenic T cells). The test is described as follows: IL-12 dependent in vitro T-helper cell (Th1) differentiation assay, IFN-γ production upon secondary anti-CD3 stimulation. Particulars: read-out: IC50, inhibition of IL-12 induced Th1 differentiation as defined by IFN-γ production. The test is classed as cell-based. The protocol: This example illustrates the inventive compounds' ability to suppress Th1 differentiation in vitro by blocking IL-12 signalling. Each of compounds A through Y were tested in an IL-12 dependent in vitro T-helper cell differentiation assay as described in LeGross et al., J. Exp. Med., 172:921-929 (1990). Recombinant IL-12 was used to induce Th1 differentiation. Spenic T cells were purified utilizing the antibodies RA3-3A1/6.1 (anti-B220), J11d and MAR18.5 (anti-rat kappa chain) to deplete the B cells via complement mediated toxicity following the procedure set forth in Klaus et al., J. Immunol., 149:1867-1875 (1992). Splenic T cells were stimulated at 5×10^5/ml with insoluble anti-CD3 alone (145-2C11, Pharmingen, San Diego, Calif.), or anti-CD3 and 5 U/ml IL-12, with and without each inventive compound. After seven days, equal numbers of viable cells were restimulated for 24 hours with anti-CD3 without the inventive compounds, and the supernatants were collected and assayed for IFN-γ production. IFN-γ and IL-4 levels were measured by Interest kits from Genzyme specific for IFN-γ and IL-4.
Th1 differentiation was induced by culturing anti-CD3 stimulated T cells in the presence of exogenous IL-12. […] The values in the “IC50 μM” column were determined by measuring the inhibition of IL-121 induced Th1 differentiation as defined by IFN-γ production upon secondary stimulation with anti-CD3 alone. None of the compounds affected the viability or recovery of T cells after one week of culture.
Usually IC50 stands for the concentration that gives 50% inhibition. With `CNc1nc2c([nH]1)c(=O)n(CCCC[C@@H](C)O)c(=O)n2C` [CT12447, (R)-1-(5-hydroxyhexyl)-3-methyl-8-methylaminoxanthine], the IC50 was found to be 25 µM. Turning to `C[C@@H](O)CCCCn1c(=O)c2[nH]c(=O)[nH]c2n(C)c1=O` [CT12452, (R)-1-(5-hydroxyhexyl)-3-methyluric acid], the IC50 turned out to be 35 µM.

The same test, now with this note: splenic T cells, anti-CD3 and 5 U/ml IL-12, seven days with compound, restimulated 24 hours with anti-CD3 alone, read-out: IC50, inhibition of IL-12 induced Th1 differentiation as defined by IFN-γ production.
For the compound `CC(CCCCn1c(=O)c2c(ncn2C)n(C)c1=O)NO` (centres unmarked) [CT7549, 1-(5-(N-Hydroxy)aminohexyl)-3,7-dimethylxanthine], the IC50 is 21 µM.

Consider `C[C@@H](O)CCCCn1c(=O)n(C)c(=O)c2c1ncn2C` [CT11495, (R)-3-(5-Hydroxyhexyl)-1,7-dimethylxanthine], for which the concentration for half-maximal inhibition (IC50) was found to be 35 µM.

Take `C[C@@H](O)CCCCn1c(=O)c2c([nH]c(=O)n2C)n(C)c1=O` [CT11499, (R)-1-(5-Hydroxyhexyl)-3,7-dimethyluric acid]: the IC50 is 30 µM. `C[C@@H](O)CCCCn1c(=O)c2c(ncn2Cc2ccccc2)n(C)c1=O` [CT12404]: the concentration for half-maximal inhibition (IC50) turned out to be 28 µM.

`Cc1nc2c(c(=O)n(CCCC[C@@H](C)O)c(=O)n2C)n1Cc1ccccc1` [CT12407, (R)-1-(5-hydroxyhexyl)-7-benzyl-3,8-dimethylxanthine]: the concentration for half-maximal inhibition (IC50) came out at 30 µM.

For the compound `C[C@@H](O)CCCCn1c(=O)c2c(ncn2C)n(Cc2ccco2)c1=O` [CT12422, (R)-3-(2-Furylmethyl)-1-(5-hydroxyhexyl)-7-methylxanthine], the IC50 stood at 19 µM. On the same count and under the same terms, in the case of `C[C@@H](O)CCCCn1c(=O)c2[nH]c(CN)nc2n(C)c1=O` [CT12440, (R)-8-Aminomethyl-1-(5-hydroxyhexyl)-3-methylxanthine] it was 9 µM. Still for that read-out and setting: next, `CNCc1nc2c([nH]1)c(=O)n(CCCC[C@@H](C)O)c(=O)n2C` [CT12441, (R)-1-(5-hydroxyhexyl)-3-methyl-8-(N-methyl)aminomethylxanthine]: 19 µM. Still for that read-out and setting: next, `Cc1cn(C)c2c1c(=O)n(CCCC[C@@H](C)O)c(=O)n2C` [CT12458, (R)-3-(5-Hydroxyhexyl)-1,7,9-dimethyl-2,4-pyrrolo[2,3-d]pyrimidinedione]: 27 µM; `Cc1c[nH]c2c1c(=O)n(CCCC[C@@H](C)O)c(=O)n2C` [CT12459, (R)-1,9-dimethyl-3-(5-hydroxyhexyl)-2,4-pyrrolo[2,3-d]pyrimidinedione]: 17 µM. Turning to `C[C@@H](O)CCCCn1c(=O)c2c(ncn2C)n(CCCCCCNC(=O)CCCC[C@@H]2SC[C@@H]3NC(=O)N[C@@H]32)c1=O` [CT12460, (R)-3-(6-biotinylamidohexyl)-1-(5-hydroxyhexyl)-7-methylxanthine], the IC50 is 21.8 µM. As for `C[C@@H](O)CCCCn1c(=O)c2nsnc2n(C)c1=O` [CT12461, (R)-3-(5-hydroxyhexyl)-1-methyl-[1,2,5]thiadiazolo[3,4]pyrimidine-2,4-dione], the concentration for half-maximal inhibition (IC50) was 17 µM.

For `C[C@@H](O)CCCCn1c(=O)c2[nH]nnc2n(C)c1=O` [CT12463, (R)-1-(5-Hydroxyhexyl)-3-methyl-8-azaxanthine], the IC50 was 31 µM. Same read-out and setting: in the case of `C[C@@H](O)CCCCn1c(=O)c2c(nnn2C)n(C)c1=O` [CT12464, (R)-3,7-dimethyl-1-(5-hydroxyhexyl)-8-azaxanthine] it was 12 µM; in that of `C[C@@H](O)CCCCn1c(=O)c2nn(C)nc2n(C)c1=O` [CT12465, (R)-3,8-Dimethyl-1-(5-hydroxyhexyl)-8-azaxanthine], 15 µM.

Take `CNc1nc2c(c(=O)n(CCCC[C@@H](C)O)c(=O)n2C)n1C` [CT12481, (R)-3,7-dimethyl-1-(5-hydroxyhexyl)-8-N-methylaminoxanthine]: the IC50 amounted to 24.7 µM. For `C[C@@H](O)CCCCn1c(=O)c2c(nc(N(C)C)n2C)n(C)c1=O` [CT12485, (R)-3,7-Dimethyl-8-N,N-dimethylamino-1-(5-hydroxyhexyl)-xanthine], the IC50 amounted to 10 µM. Same read-out and setting: next, `CSc1nc2c([nH]1)c(=O)n(CCCC[C@@H](C)O)c(=O)n2C` [CT12490, (R)-1-(5-Hydroxyhexyl)-3-methyl-8-methylsulfanylxanthine]: 20 µM; `C[C@H](CCCCn1c(=O)c2c(ncn2C)n(C)c1=O)OP(=O)(O)O` [CT17557]: 9 µM; `C[C@H](O)CCCCn1c(=O)c2c(ncn2Cc2ccccc2)n(C)c1=O` [CT22404, (S)-1-(5-Hydroxyhexyl)-7-benzyl-3-methylxanthine]: 10 µM. The same measure, in the same setting: in the case of `C[C@H](O)CCCCn1c(=O)c2c(nnn2C)n(C)c1=O` [CT22464, (S)-3,7-Dimethyl-1-(5-hydroxyhexyl)-8-azaxanthine] it was 30 µM; in that of `C[C@H](O)CCCCn1c(=O)c2nn(C)nc2n(C)c1=O` [CT22465, (S)-3,8-dimethyl-1-(5-hydroxyhexyl)-8-azaxanthine], 14 µM.
